Assay results from ChEMBL document CHEMBL4350952, “Evolution of PI3Kγ and δ Inhibitors for Inflammatory and Autoimmune Diseases” (J Med Chem, 2019).

Legend:
Homo sapiens [1] = species: Homo sapiens; assay: Selectivity ratio of IC50 for N-terminal His-tagged recombinant human full length p110 beta/untagged recombinant full length human p85alpha IC50 forN-terminal His6-tagged recombinant full length human p110delta/untagged recombinant full length human p85alpha
Homo sapiens [2] = species: Homo sapiens; assay: Selectivity ratio of IC50 for His-tagged recombiant human full length p110 alpha/p85 alpha IC50 for N-terminal His6-tagged recombinant full length human p110delta/untagged recombinant full length human p85alpha
[3] = target: T1, PI3-kinase p110-delta/p85-alpha (Homo sapiens, UniProt O00329); assay: Inhibition of N-terminal His6-tagged recombinant full length human p110delta/untagged recombinant full length human p85alpha expressed in baculovirus infected Sf21 insect cells after 80 mins by fluorescence polarization assay
T1 sequence (P27986 whole entry, one chain of several, canonical isoform): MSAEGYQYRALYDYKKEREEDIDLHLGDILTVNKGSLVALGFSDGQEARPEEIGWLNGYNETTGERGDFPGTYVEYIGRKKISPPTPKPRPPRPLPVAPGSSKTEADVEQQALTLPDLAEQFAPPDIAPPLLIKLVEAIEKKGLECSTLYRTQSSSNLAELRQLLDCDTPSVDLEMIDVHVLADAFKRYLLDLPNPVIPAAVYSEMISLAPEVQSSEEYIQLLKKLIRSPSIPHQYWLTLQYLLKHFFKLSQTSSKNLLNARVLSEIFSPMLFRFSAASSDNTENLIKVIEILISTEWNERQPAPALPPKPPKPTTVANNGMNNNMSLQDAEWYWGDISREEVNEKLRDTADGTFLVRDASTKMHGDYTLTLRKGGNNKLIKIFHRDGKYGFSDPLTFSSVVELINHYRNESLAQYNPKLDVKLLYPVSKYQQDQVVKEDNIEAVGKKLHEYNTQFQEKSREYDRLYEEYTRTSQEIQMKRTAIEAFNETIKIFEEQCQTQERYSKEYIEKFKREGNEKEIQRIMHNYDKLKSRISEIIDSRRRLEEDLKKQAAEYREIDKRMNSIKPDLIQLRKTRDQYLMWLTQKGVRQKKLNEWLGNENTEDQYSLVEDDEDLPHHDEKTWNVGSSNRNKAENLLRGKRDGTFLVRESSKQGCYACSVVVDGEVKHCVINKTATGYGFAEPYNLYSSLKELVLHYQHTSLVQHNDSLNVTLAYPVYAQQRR

[4] = target: T2, Phosphatidylinositol 4,5-bisphosphate 3-kinase catalytic subunit gamma isoform (Homo sapiens, UniProt P48736); assay: Inhibition of recombinant N-terminal His-tagged full length human PI3Kgamma expressed in baculovirus expression system after 80 mins by fluorescence polarization assay
T2 sequence (P48736 whole entry, canonical isoform): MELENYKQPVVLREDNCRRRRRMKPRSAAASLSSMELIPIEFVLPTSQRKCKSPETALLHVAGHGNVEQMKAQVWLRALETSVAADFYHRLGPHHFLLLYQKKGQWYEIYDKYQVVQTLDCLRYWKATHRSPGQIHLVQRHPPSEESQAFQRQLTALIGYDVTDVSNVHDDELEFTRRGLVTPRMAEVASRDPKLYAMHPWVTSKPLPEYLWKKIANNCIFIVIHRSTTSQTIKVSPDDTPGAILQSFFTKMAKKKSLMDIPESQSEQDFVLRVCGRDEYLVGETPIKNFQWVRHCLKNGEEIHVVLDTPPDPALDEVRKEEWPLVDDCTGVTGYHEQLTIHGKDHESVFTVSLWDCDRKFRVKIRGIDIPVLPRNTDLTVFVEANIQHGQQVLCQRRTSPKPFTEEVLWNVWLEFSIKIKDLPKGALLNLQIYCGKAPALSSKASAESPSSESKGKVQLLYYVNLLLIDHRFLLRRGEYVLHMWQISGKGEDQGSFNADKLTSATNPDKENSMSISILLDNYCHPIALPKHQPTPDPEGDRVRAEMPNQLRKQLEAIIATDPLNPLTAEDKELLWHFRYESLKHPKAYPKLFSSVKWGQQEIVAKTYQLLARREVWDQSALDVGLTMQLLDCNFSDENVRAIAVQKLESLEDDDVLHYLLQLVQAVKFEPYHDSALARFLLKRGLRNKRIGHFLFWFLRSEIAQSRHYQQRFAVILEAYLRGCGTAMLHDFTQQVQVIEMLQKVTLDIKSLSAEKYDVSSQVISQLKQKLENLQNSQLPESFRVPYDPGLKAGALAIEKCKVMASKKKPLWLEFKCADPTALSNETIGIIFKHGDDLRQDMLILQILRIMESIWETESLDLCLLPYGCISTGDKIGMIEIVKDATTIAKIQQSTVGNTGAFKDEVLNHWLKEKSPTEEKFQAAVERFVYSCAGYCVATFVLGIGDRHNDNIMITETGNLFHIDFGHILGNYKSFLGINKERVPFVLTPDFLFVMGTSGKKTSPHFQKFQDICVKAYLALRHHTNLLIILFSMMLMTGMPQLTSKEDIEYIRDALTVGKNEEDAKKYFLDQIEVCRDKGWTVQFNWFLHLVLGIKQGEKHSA

[5] = target: T1, PI3-kinase p110-delta/p85-alpha; assay: Inhibition of N-terminal His6-tagged recombinant full length human p110delta/untagged recombinant full length human p85alpha expressed in baculovirus infected Sf21 insect cells using PIP2 as substrate after 60 mins by HTRF assay
[6] = target: Phosphatidylinositol 3-kinase catalytic subunit type 3 (Homo sapiens, UniProt Q8NEB9); assay: Inhibition of Vps34 (unknown origin)
Phosphatidylinositol 3-kinase catalytic subunit type 3, sequence (Q8NEB9 whole entry): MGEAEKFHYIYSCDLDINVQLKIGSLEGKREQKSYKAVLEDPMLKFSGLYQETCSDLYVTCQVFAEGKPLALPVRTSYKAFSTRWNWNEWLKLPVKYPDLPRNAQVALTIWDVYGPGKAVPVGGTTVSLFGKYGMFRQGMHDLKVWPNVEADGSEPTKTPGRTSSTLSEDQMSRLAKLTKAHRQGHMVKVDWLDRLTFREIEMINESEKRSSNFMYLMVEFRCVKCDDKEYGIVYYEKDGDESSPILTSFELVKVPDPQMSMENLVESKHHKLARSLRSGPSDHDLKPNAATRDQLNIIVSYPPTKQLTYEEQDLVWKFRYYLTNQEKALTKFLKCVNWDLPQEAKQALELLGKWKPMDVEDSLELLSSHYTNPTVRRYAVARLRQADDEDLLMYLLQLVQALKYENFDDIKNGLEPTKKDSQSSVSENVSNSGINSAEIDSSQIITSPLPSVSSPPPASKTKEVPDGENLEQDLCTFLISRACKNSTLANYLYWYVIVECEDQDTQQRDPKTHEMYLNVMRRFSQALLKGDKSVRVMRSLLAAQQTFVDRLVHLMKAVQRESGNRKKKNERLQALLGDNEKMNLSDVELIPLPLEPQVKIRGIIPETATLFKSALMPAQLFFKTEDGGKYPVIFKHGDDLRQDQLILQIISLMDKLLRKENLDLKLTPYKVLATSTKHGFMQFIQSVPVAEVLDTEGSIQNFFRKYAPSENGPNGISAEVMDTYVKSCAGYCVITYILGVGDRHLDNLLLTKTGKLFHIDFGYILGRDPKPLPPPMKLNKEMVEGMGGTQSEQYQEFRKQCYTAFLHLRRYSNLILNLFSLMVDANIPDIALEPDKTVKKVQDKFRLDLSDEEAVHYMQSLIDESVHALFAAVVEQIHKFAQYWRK

[7] = target: DNA-dependent protein kinase catalytic subunit (Homo sapiens, UniProt P78527); assay: Inhibition of DNAPK (unknown origin)
[8] = target: Serine/threonine-protein kinase SIK1 (Homo sapiens) (UniProt P57059); assay: Inhibition of SIK (unknown origin) at 1 uM relative to control
Serine/threonine-protein kinase SIK1 (Homo sapiens), sequence (P57059 whole entry, canonical isoform): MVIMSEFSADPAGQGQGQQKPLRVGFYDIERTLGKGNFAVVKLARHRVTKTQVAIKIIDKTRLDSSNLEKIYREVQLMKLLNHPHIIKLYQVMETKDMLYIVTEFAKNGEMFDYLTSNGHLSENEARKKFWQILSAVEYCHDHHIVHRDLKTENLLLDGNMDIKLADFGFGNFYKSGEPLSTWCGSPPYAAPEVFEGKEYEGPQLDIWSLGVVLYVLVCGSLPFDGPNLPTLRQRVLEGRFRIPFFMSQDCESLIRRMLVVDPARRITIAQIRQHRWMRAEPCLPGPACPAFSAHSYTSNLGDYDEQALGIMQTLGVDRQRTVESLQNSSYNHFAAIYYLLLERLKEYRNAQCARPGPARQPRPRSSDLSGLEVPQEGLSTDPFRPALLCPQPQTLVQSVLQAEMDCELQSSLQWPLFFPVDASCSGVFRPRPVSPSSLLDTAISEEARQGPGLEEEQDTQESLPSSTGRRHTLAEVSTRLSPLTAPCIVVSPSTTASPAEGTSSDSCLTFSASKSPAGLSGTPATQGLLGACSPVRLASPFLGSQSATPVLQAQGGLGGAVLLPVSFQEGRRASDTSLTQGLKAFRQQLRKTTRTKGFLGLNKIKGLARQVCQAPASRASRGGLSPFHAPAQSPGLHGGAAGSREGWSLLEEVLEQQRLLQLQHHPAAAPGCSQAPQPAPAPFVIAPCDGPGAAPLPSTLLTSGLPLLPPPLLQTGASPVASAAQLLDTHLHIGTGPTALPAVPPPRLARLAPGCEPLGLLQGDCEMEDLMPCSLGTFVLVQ

[9] = target: T3, Phosphatidylinositol 4,5-bisphosphate 3-kinase catalytic subunit delta isoform (Homo sapiens, UniProt O00329)
T3 sequence (O00329 whole entry): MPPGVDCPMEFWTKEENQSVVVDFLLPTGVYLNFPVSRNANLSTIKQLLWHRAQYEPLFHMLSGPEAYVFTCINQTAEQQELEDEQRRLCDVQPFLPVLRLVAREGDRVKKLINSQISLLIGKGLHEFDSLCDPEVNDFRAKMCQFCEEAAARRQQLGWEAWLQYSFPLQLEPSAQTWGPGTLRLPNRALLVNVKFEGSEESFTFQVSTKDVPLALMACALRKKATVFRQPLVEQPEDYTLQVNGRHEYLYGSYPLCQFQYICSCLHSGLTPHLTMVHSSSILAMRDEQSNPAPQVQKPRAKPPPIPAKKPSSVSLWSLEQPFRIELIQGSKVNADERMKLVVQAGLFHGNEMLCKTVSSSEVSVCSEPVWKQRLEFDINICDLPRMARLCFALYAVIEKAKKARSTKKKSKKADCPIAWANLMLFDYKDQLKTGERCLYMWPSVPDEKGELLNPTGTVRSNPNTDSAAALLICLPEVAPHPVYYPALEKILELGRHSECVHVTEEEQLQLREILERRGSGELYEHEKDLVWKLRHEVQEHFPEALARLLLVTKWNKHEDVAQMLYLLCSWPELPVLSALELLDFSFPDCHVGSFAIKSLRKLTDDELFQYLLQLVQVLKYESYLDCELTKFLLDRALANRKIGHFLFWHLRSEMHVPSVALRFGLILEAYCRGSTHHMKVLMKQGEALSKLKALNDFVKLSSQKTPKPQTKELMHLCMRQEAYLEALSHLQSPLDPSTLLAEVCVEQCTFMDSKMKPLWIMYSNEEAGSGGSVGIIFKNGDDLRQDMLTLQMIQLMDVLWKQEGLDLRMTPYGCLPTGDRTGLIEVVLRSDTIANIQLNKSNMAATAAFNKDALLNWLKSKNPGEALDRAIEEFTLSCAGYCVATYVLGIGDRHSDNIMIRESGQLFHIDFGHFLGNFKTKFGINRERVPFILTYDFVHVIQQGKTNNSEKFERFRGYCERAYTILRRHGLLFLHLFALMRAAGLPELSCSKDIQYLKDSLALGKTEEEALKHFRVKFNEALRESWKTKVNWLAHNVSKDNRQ
Description: Inhibition of PI3Kdelta (unknown origin) preincubated for 30 mins followed by insulin stimulation for 5 mins by Western blot analysis

[10] = target: T2, Phosphatidylinositol 4,5-bisphosphate 3-kinase catalytic subunit gamma isoform; assay: Inhibition of PI3Kgamma (unknown origin) using PIP2 as substrate preincubated for 10 mins followed by ATP addition measured after 30 mins by HTRF assay
[11] = target: Casein kinase I isoform epsilon (Homo sapiens) (UniProt P49674); assay: Inhibition of casein kinase 1 epsilon (unknown origin) at 1 uM relative to control
Casein kinase I isoform epsilon (Homo sapiens), sequence (P49674 whole entry, looked up, canonical isoform): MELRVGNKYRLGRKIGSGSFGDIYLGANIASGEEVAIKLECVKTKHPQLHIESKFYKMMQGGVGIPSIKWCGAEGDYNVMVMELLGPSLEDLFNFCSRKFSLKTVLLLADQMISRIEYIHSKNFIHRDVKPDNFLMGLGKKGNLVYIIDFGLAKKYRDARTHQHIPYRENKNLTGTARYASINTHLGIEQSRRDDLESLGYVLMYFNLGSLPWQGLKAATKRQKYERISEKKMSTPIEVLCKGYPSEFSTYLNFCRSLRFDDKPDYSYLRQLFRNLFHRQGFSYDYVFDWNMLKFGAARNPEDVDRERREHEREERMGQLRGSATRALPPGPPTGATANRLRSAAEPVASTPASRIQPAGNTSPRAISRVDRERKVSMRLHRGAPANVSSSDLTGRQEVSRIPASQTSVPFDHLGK

[12] = target: T1, PI3-kinase p110-delta/p85-alpha; assay: Inhibition of N-terminal His6-tagged recombinant full length human p110delta/untagged recombinant full length human p85alpha expressed in baculovirus infected Sf21 insect cells after 20 mins by alphascreen assay
Pfeiffer = assay: Cytotoxicity against human Pfeiffer cells; type: functional, cell-based
[13] = target: T3, Phosphatidylinositol 4,5-bisphosphate 3-kinase catalytic subunit delta isoform; assay: Inhibition of PI3Kdelta (unknown origin)
[14] = target: T2, Phosphatidylinositol 4,5-bisphosphate 3-kinase catalytic subunit gamma isoform; assay: Inhibition of PI3Kgamma (unknown origin)
B cell = assay: Cytotoxicity against human B cells; type: functional, cell-based
Homo sapiens [15] = species: Homo sapiens; assay: Selectivity ratio of IC50 for N-terminal His6-tagged recombiant human full length p120gamma IC50 for N-terminal His6-tagged recombinant full length human p110delta/untagged recombinant full length human p85alpha
Jurkat = assay: Cytotoxicity against human Jurkat cells; type: functional, cell-based
Neutrophil = assay: Cytotoxicity against in human Neutrophil cells; type: cell-based
[16] = target: T3, Phosphatidylinositol 4,5-bisphosphate 3-kinase catalytic subunit delta isoform; assay: Inhibition of PI3Kdelta in human Neutrophil cells; type: cell-based
Homo sapiens [17] = species: Homo sapiens; assay: Selectivity ratio of IC50 for PI3Kbeta in human Neutrophil cells to IC50 for PI3Kdelta in human Neutrophil cells; type: cell-based
[18] = target: T2, Phosphatidylinositol 4,5-bisphosphate 3-kinase catalytic subunit gamma isoform; assay: Inhibition of PI3Kgamma in human Neutrophil cells; type: cell-based
Homo sapiens [19] = species: Homo sapiens; assay: Selectivity ratio of IC50 for PI3Kalpha in human Neutrophil cells to IC50 for PI3Kdelta in human Neutrophil cells; type: cell-based
SU-DHL-6 [20] = assay: Cytotoxicity against in human SUDHL6 cells; type: functional, cell-based
Homo sapiens [21] = species: Homo sapiens; assay: Selectivity ratio of IC50 for PI3Kbeta in human SUDHL6 cells to IC50 for PI3Kdelta in human SUDHL6 cells; type: cell-based
[22] = target: T2, Phosphatidylinositol 4,5-bisphosphate 3-kinase catalytic subunit gamma isoform; assay: Inhibition of PI3Kgamma in human SUDHL6 cells; type: cell-based
Homo sapiens [23] = species: Homo sapiens; assay: Selectivity ratio of IC50 for PI3Kalpha in human SUDHL6 cells to IC50 for PI3Kdelta in human SUDHL6 cells; type: cell-based
[24] = Cytotoxicity against basophil derived from B-cell malignant patient by cell-titer aqueous one solution cell proliferation assay; type: functional; conditions: Homo sapiens
[25] = Cytotoxicity against human SUDHL cells; type: functional, cell-based
[26] = target: T3, Phosphatidylinositol 4,5-bisphosphate 3-kinase catalytic subunit delta isoform; assay: Inhibition of PI3Kdelta in human SU-DHL6 cells; type: cell-based
SU-DHL-6 [27] = assay: Cytotoxicity against human SU-DHL6 cells; type: functional, cell-based

C[C@H]1CN(c2nc(N)nc3c2S(=O)(=O)CC3)[C@@H]1c1nn2ccc(Cl)c2c(=O)n1-c1ccccc1
Ratio IC50 (Homo sapiens [1]): 250 | Ratio IC50 (Homo sapiens [2]): 250 | IC50 [3]: 4 nM | IC50 [4]: 3 nM

CCn1c(-c2cnc(C)nc2)nc2c(NC3CCc4nc(Cl)n(C5CC5)c4C3)ncnc21 (centres undefined)
IC50 [5]: < 1 nM

C[C@H](NC(=O)c1c(N)nn2cccnc12)c1cc2cccc(C#Cc3cnn(C)c3)c2c(=O)n1-c1ccccc1 [EGANELISIB]
IC50 [6]: 40000 nM | IC50 [7]: 4800 nM | inhibition [8]: 88%

C[C@H](Nc1ncnc(N)c1C#Cc1ccc(F)cn1)c1nc2c(F)ccc(F)c2c(=O)n1-c1cc(F)cc(F)c1
IC50 [9]: < 100 nM

CC(C)Oc1ccc(-c2nn([C@@H](C)c3oc4ccc(F)cc4c(=O)c3-c3cccc(F)c3)c3ncnc(N)c23)cc1F [UMBRALISIB]
IC50 [10]: > 120 nM | inhibition [11]: > 60%

COc1c(C(C)Nc2ncnc(N)c2C#N)cc(Cl)c(C)c1-c1cccnc1 (centres undefined)
IC50 [12]: < 20 nM | IC50 (Pfeiffer): < 20 nM

C[C@H](Nc1ncnc(N)c1C#N)c1cc2ncc(Cl)n2cc1-c1ccccc1
IC50 [13]: 0.2 nM | IC50 [14]: 87 nM

CC(c1cc2ccccn2c1-c1ccc(=O)n(CCN2CCOCC2)n1)n1nc(-c2cc(O)cc(F)c2)c2c(N)ncnc21 (centres undefined)
IC50 [13]: 10 to 1000 nM | IC50 [14]: < 10 nM

CCOc1c([C@H](C)n2nc(C)c3c(N)ncnc32)cc(Cl)c(F)c1[C@@H]1CNC(=O)C1 [PARSACLISIB]
IC50 (B cell): 0.15 nM

Cn1c(C(=O)NCC2CC2)nc2c(N3CCC(n4c(=O)[nH]c5ccccc54)CC3)ncnc21
IC50 [5]: 7.5 nM | Ratio IC50 (Homo sapiens [15]): > 13

Cc1ccc2c(c1)C(=O)N(C)c1cnc(Nc3cccc(S(=O)(=O)N4CCC(O)CC4)c3)nc1N2C
IC50 [13]: 2 nM | IC50 (Jurkat): 1400 nM | Ratio IC50 (Homo sapiens [15]): 3.5

CCn1c(-c2ccc(C(F)(F)F)nc2)nc2c(NC3CCc4nnc(C(C)C)n4C3)ncnc21 (centres undefined)
IC50 [5]: < 1 nM

[O-][n+]1cccc(-c2nc3c(Cl)cccc3cc2[C@@H](Nc2ncnc3cccnc23)C(F)(F)F)c1 [SELETALISIB]
IC50 (Neutrophil): 16 nM | IC50 [16]: 12 nM | Ratio IC50 (Homo sapiens [17]): 180 | IC50 [18]: 280 nM | Ratio IC50 (Homo sapiens [19]): 300

C[C@H](Nc1ncnc2[nH]cnc12)C1=Nc2cccc(Cl)c2S(=O)(=O)N1c1ccccc1
IC50 (SU-DHL-6 [20]): 6 nM | Ratio IC50 (Homo sapiens [21]): 170 | IC50 [22]: 34 nM | Ratio IC50 (Homo sapiens [23]): 790

Cc1csc2nc([C@H](C)Nc3ncnc4[nH]cnc34)c(-c3cccc(F)c3)c(=O)n12 [DEZAPELISIB]
IC50 [24]: 35 nM

CC(=O)N1CC(N2CCOc3c(C(C)n4nc(C)c5c(N)ncnc54)cc(Cl)c(C)c3C2)C1 (centres undefined)
IC50 [12]: < 100 nM | IC50 [25]: < 500 nM

Cc1ccn2nc([C@H](C)Nc3ncnc4[nH]cc(-c5ccc(O)c(CN6CCC(N(C)C)CC6)c5)c34)n(-c3ccccc3)c(=O)c12
IC50 [9]: 0.43 nM

C[C@H](Nc1nc(N)nc(N)c1C#N)c1cn2ncc(Cl)c2nc1-c1cccc(F)c1
IC50 [26]: < 20 nM | IC50 (SU-DHL-6 [27]): < 20 nM
